From patent US5246966A, “Substituted alkenoic acid and its derivatives” (Bayer Aktiengesellschaft, priority 1991, dated 1993) come the findings set out here.

The target in this test is T1, LTD4 receptor ([3H-LTD4] binding to guinea-pig lung membranes) (Cavia porcellus, UniProt Q2NNR5).
T1 construct: guinea-pig lung membranes; from tissue; host or cells: guinea-pig lung membranes
T1 sequence (Q2NNR5 1-340): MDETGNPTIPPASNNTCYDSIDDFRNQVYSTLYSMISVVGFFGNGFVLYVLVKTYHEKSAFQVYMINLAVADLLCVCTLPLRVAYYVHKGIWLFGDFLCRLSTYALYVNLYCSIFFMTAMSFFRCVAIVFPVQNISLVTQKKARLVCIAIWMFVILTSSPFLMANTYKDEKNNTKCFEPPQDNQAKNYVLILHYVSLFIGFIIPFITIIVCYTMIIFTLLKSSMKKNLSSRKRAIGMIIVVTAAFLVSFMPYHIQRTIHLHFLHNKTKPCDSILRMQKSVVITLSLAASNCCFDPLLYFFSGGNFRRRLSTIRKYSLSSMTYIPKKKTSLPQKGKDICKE
Description: [3H]-LTD4 binding assay. Particulars: displacement of 0.8 nM 3H-LTD4 from guinea-pig lung membranes, 15 minutes at 20° C., pH 7.4; Cheng and Prusoff correction of IC50; read-out: pKi [3H-LTD4] (converted). On the procedure:
To evaluate the pharmacological properties the receptor affinity of the compounds were determined by measuring its ability to displace [^3 H-LTD4 ] binding to guinea-pig lung membranes.
Test method: [^3 H]-LTD4 BINDING ASSAY
Increasing concentrations (between 10^-8 and 10^-5 M) of compounds of general formula I were incubated with 0.8 nM^3 H-LTD4 and guinea-pig lung membranes (100-150 μg protein) for 15 minutes at 20° C. in an assay buffer of 10 mM L-cysteine and 1% polypep in 50 mM Tris HCl at pH 7.4. Incubations (total volume 0.25 ml) were terminated by addition of ice-cold Tris HCl (pH 7.4) and rapidly filtered through Whatman GF/C filters which were washed twice with ice-cold buffer. All points were determined in triplicate.
The counts (dpm) bound to each filter were determined by liquid scintillation spectrometry. The amount bound in the presence of each concentration of test compound was compared to the amount of binding in the absence of test compound […] and to the amount bound in the presence of 2 μm LTD4. […]
Where 0.8 nM is the dissociation constant for ^3 H-LTD4 under these conditions and [^3 H-LTD4 ] is the precise concentration (in nM) employed in the assay (also determined by liquid scintillation counting).

Consider `O=C(O)CC[C@@H](/C=C\Cc1ccc(OCCCCOc2ccccc2)cc1)Sc1ccc(C(=O)O)cc1` [Example No. 4, Z-[4S]-4-(4-Carboxyphenylthio)-7-[4-(4-phenoxybutoxy)-phenyl]-5-heptenoic acid], for which the Ki is 31.6 nM.
